Results taken from PubChem BioAssay AID1963873 (Molecular Pharmacology Branch, DTP, NCI, 2024).

System: 276233-004-R-J1-PDC KRAS spheroids with HUVEC/MSC, viability
Test: Anticancer human tumor 276233-004-R-J1-PDC patient-derived colon adenocarcinoma cell line growth inhibition [KRAS2]
Conditions: for viability, T/C: stronger effect = lower value
In short: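 KRAS-mutant tumor cells were grown as spheroids with HUVEC endothelial cells and human MSCs as stroma. Targeted agents were tested alone and with KRAS pathway inhibitors. Doses started at or near clinical Cmax, or 10 microM, descending half-log.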

[1] = curve of first compound, second compound 0.1 µM
[2] = curve of first compound, second compound 0.316 µM
[3] = curve of first compound, second compound 1 µM
[4] = curve of first compound, second compound 3.16 µM
[5] = curve of first compound, second compound 10 µM
[6] = second compound 0.1 µM, first compound 0.01 µM
[7] = second compound 0.1 µM, first compound 0.0316 µM
[8] = second compound 0.1 µM, first compound 0.1 µM
[9] = second compound 0.1 µM, first compound 0.316 µM
[10] = second compound 0.1 µM, first compound 1 µM
[11] = second compound 0.316 µM, first compound 0.01 µM
[12] = second compound 0.316 µM, first compound 0.0316 µM
[13] = second compound 0.316 µM, first compound 0.1 µM
[14] = second compound 0.316 µM, first compound 0.316 µM
[15] = second compound 0.316 µM, first compound 1 µM
[16] = second compound 1 µM, first compound 0.01 µM
[17] = second compound 1 µM, first compound 0.0316 µM
[18] = second compound 1 µM, first compound 0.1 µM
[19] = second compound 1 µM, first compound 0.316 µM
[20] = second compound 1 µM, first compound 1 µM
[21] = second compound 3.16 µM, first compound 0.01 µM
[22] = second compound 3.16 µM, first compound 0.0316 µM
[23] = second compound 3.16 µM, first compound 0.1 µM
[24] = second compound 3.16 µM, first compound 0.316 µM
[25] = second compound 3.16 µM, first compound 1 µM
[26] = second compound 10 µM, first compound 0.01 µM
[27] = second compound 10 µM, first compound 0.0316 µM
[28] = second compound 10 µM, first compound 0.1 µM
[29] = second compound 10 µM, first compound 0.316 µM
[30] = second compound 10 µM, first compound 1 µM
[31] = second compound 0.1 µM, first compound 3.16 µM
[32] = second compound 0.316 µM, first compound 3.16 µM
[33] = second compound 1 µM, first compound 3.16 µM
[34] = second compound 3.16 µM, first compound 3.16 µM
[35] = second compound 10 µM, first compound 3.16 µM
[36] = second compound 0.1 µM, first compound 10 µM
[37] = second compound 0.316 µM, first compound 10 µM
[38] = second compound 1 µM, first compound 10 µM
[39] = second compound 3.16 µM, first compound 10 µM
[40] = second compound 10 µM, first compound 10 µM
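Note: cells exposed to agents for seven days before viability read.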
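Throughout, for viability, T/C: 100% = DMSO vehicle control wells and lower values mean fewer viable cells.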

Row | SMILES | IC50 [1] | IC50 [2] | IC50 [3] | IC50 [4] | viability, T/C [7] | viability, T/C [8] | viability, T/C [9] | viability, T/C [10] | viability, T/C [12] | viability, T/C [13] | viability, T/C [14] | viability, T/C [15] | viability, T/C [17] | viability, T/C [18] | viability, T/C [19] | viability, T/C [20] | viability, T/C [22] | viability, T/C [23] | viability, T/C [24] | viability, T/C [25] | further results
1 | CCN1CCN(Cc2ccc(Nc3ncc(F)c(-c4cc(F)c5nc(C)n(C(C)C)c5c4)n3)nc2)CC1 + COc1cc2nc(C)nc(NC(C)c3cc(N)cc(C(F)(F)F)c3)c2cc1OC1CCOC1 | > 1000 nM | > 1000 nM | > 1000 nM | > 1000 nM | 88.7% | 84.5% | 91.5% | 115% | 82.4% | 107% | 98.8% | 86.8% | 101% | 80.2% | 96.9% | 102% | 74.1% | 81.1% | 89.4% | 74.3% | IC50 [5]: < 3.16 nM; viability, T/C (second compound 0.1 µM, first compound 0.00316 µM): 89.2%; viability, T/C [6]: 98.1%; viability, T/C (second compound 0.316 µM, first compound 0.00316 µM): 110%; viability, T/C [11]: 80.9%; viability, T/C (second compound 1 µM, first compound 0.00316 µM): 105%; viability, T/C [16]: 88%; viability, T/C (second compound 3.16 µM, first compound 0.00316 µM): 82.2%; viability, T/C [21]: 96.5%; viability, T/C (second compound 10 µM, first compound 0.00316 µM): 47.1%; viability, T/C [26]: 44.4%; viability, T/C [27]: 26%; viability, T/C [28]: 19.7%; viability, T/C [29]: 4.33%; viability, T/C [30]: 2.22%
2 | CC1COCCN1c1cc(-c2ccnn2C)c2ccnc(-c3ccn[nH]3)c2n1 (stereo unspecified) + CNCc1ccccc1-c1csc(C(C)Nc2nc(C)nc3cc(OC)c(OC)cc23)c1 | > 3160 nM | > 3160 nM | > 3160 nM | < 10 nM | 95.5% | 90.2% | 82.8% | 70% | 94.1% | 87.7% | 85.3% | 77.9% | 86.7% | 69.9% | 63.1% | 57.7% | 1.11% | 1.38% | 1.8% | 2.11% | IC50 [5]: < 10 nM; viability, T/C [6]: 93.1%; viability, T/C [31]: 57%; viability, T/C [11]: 93.2%; viability, T/C [32]: 59.1%; viability, T/C [16]: 82%; viability, T/C [33]: 50.9%; viability, T/C [21]: 0.49%; viability, T/C [34]: 1.03%; viability, T/C [26]: 0.67%; viability, T/C [27]: 3.53%; viability, T/C [28]: 0.82%; viability, T/C [29]: 0.17%; viability, T/C [30]: 0.15%; viability, T/C [35]: 2.79%
3 | Cn1ncnc1[C@H]1c2n[nH]c(=O)c3cc(F)cc(c23)N[C@@H]1c1ccc(F)cc1 | – | – | – | – | – | – | – | – | – | – | – | – | – | – | – | – | – | – | – | – | viability, T/C (compound 0.000316 µM): 96.7% [middle of 5 runs]; viability, T/C (compound 0.001 µM): 101% [middle of 5 runs]; viability, T/C (compound 0.1 µM): 102% [middle of 5 runs]; IC50 (curve of compound): > 100 nM
4 | CN(C)C/C=C/C(=O)Nc1cc2c(Nc3ccc(F)c(Cl)c3)ncnc2cc1O[C@H]1CCOC1 | – | – | – | – | – | – | – | – | – | – | – | – | – | – | – | – | – | – | – | – | viability, T/C (compound 0.000316 µM): 98.5% [middle of 5 runs]; viability, T/C (compound 0.001 µM): 92.7% [middle of 5 runs]; viability, T/C (compound 0.00316 µM): 90.8% [middle of 5 runs]; viability, T/C (compound 0.01 µM): 95.8% [middle of 5 runs]; viability, T/C (compound 0.0316 µM): 97.7% [middle of 5 runs]; viability, T/C (compound 0.1 µM): 90% [middle of 5 runs]; IC50 (curve of compound): > 100 nM
5 | O=C(c1cc(Cc2n[nH]c(=O)c3ccccc23)ccc1F)N1CCN(C(=O)C2CC2)CC1 + CC1OCC2(CCN(c3cnc(Sc4ccnc(N)c4Cl)c(N)n3)CC2)C1N | > 10000 nM | > 10000 nM | > 10000 nM | 233 nM | 75.3% | 84.9% | 85.4% | 81.8% | 76.6% | 78.5% | 65.7% | 71.7% | 95.6% | 67.9% | 59.4% | 54.2% | 54.4% | 52.8% | 45.1% | 50.6% | IC50 [5]: 70.7 nM; viability, T/C [31]: 79.4%; viability, T/C [36]: 62.5%; viability, T/C [32]: 64.9%; viability, T/C [37]: 65%; viability, T/C [33]: 51%; viability, T/C [38]: 52.9%; viability, T/C [34]: 44.4%; viability, T/C [39]: 43.3%; viability, T/C [27]: 55.9%; viability, T/C [28]: 47.1%; viability, T/C [29]: 41.4%; viability, T/C [30]: 42.7%; viability, T/C [35]: 37.5%; viability, T/C [40]: 36.6%
6 | CC1COCCN1c1cc(-c2ccnn2C)c2ccnc(-c3ccn[nH]3)c2n1 (stereo unspecified) + COc1cc2nc(C)nc(NC(C)c3cc(N)cc(C(F)(F)F)c3)c2cc1OC1CCOC1 | 1470 nM | 706 nM | 1860 nM | 474 nM | 90.3% | 75.8% | 71.4% | 54.5% | 86.1% | 74.2% | 58.9% | 42.6% | 82% | 76.9% | 64.8% | 53.6% | 82.6% | 70% | 55.8% | 37.5% | IC50 [5]: < 10 nM; viability, T/C [6]: 81.3%; viability, T/C [31]: 40.6%; viability, T/C [11]: 80%; viability, T/C [32]: 48.6%; viability, T/C [16]: 94.5%; viability, T/C [33]: 46.3%; viability, T/C [21]: 80.6%; viability, T/C [34]: 48.4%; viability, T/C [26]: 37.4%; viability, T/C [27]: 46.5%; viability, T/C [28]: 45.8%; viability, T/C [29]: 34.1%; viability, T/C [30]: 36.9%; viability, T/C [35]: 24.8%
7 | CC(C)NCC(C(=O)N1CCN(c2ncnc3c2C(C)CC3O)CC1)c1ccc(Cl)cc1 (stereo unspecified) + COc1cc2nc(C)nc(NC(C)c3cc(N)cc(C(F)(F)F)c3)c2cc1OC1CCOC1 | 1780 nM | 1110 nM | 1240 nM | 700 nM | 75.5% | 79.9% | 73.6% | 56.6% | 89.3% | 78.6% | 62.7% | 57.8% | 67.4% | 76.3% | 70.3% | 55.4% | 80.7% | 75.6% | 78.2% | 37.3% | IC50 [5]: < 31.6 nM; viability, T/C [31]: 35.8%; viability, T/C [36]: 51.2%; viability, T/C [32]: 32.6%; viability, T/C [37]: 38.8%; viability, T/C [33]: 26.2%; viability, T/C [38]: 27.4%; viability, T/C [34]: 29.9%; viability, T/C [39]: 38.8%; viability, T/C [27]: 35.6%; viability, T/C [28]: 16.1%; viability, T/C [29]: 13.9%; viability, T/C [30]: 7.24%; viability, T/C [35]: 4.57%; viability, T/C [40]: 6.8%
8 | O=C(c1cc(Cc2n[nH]c(=O)c3ccccc23)ccc1F)N1CCN(C(=O)C2CC2)CC1 + C=CC(=O)N1CCN(c2nc(OCC3CCCN3C)nc3c2CCN(c2cccc4cccc(C)c24)C3)CC1CC#N | > 10000 nM | > 10000 nM | > 10000 nM | < 31.6 nM | 98.1% | 109% | 100% | 87% | 110% | 94.8% | 93.4% | 68.7% | 81.5% | 89.8% | 110% | 87.6% | 55.4% | 37.9% | 57.2% | 43.9% | IC50 (curve of first compound, second compound 0.0316 µM): > 10000 nM; viability, T/C (second compound 0.0316 µM, first compound 0.0316 µM): 114%; viability, T/C (second compound 0.0316 µM, first compound 0.1 µM): 109%; viability, T/C (second compound 0.0316 µM, first compound 0.316 µM): 101%; viability, T/C (second compound 0.0316 µM, first compound 1 µM): 93.9%; viability, T/C (second compound 0.0316 µM, first compound 3.16 µM): 91.2%; viability, T/C (second compound 0.0316 µM, first compound 10 µM): 82.5%; viability, T/C [31]: 87.1%; viability, T/C [36]: 83.1%; viability, T/C [32]: 83.4%; viability, T/C [37]: 76.3%; viability, T/C [33]: 82.8%; viability, T/C [38]: 85%; viability, T/C [34]: 44.9%; viability, T/C [39]: 37.1%
